Source: ChEMBL document CHEMBL4387729, “Synthesis and structure-activity relationship of 4-alkoxy-thieno[2,3-b]pyridine derivatives as potent alkaline phosphatase enhancers for osteoporosis treatment” (Bioorg Med Chem Lett, 2019)
Values after ≈ are worked out from the molar mass of the structure shown. Blank lines part the entries; values can stand above or below the compound they belong to. Active and inactive are the calls of the source. No cut-off for these calls is given here.

Assays:
[1] = molecular target: T1, Alkaline phosphatase, tissue-nonspecific isozyme (Mus musculus) (UniProt P09242); test: Induction of alkaline phosphatase activity in mouse ST-2 cells after 4 days by spectrophotometric method; type: cell-based
T1 sequence (whole entry): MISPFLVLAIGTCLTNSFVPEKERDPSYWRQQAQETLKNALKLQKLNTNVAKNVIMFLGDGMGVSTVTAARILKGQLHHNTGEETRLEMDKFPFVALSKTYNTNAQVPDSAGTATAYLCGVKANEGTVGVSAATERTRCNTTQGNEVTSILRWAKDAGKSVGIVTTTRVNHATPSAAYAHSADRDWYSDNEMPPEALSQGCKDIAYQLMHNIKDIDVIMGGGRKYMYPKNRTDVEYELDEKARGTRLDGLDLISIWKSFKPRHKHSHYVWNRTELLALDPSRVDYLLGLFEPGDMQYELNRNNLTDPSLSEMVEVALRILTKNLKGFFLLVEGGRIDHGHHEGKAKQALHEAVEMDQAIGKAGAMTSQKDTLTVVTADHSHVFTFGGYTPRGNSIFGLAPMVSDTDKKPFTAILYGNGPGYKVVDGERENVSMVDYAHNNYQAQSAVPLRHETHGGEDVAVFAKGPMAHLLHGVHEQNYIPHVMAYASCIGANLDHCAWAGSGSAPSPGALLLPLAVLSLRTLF

[2] = molecular target: T2, CYP1A2 (Homo sapiens, UniProt P05177); test: Inhibition of CYP1A2 (unknown origin) at 10 uM relative to control; type: ADME
T2 sequence (P05177 whole entry): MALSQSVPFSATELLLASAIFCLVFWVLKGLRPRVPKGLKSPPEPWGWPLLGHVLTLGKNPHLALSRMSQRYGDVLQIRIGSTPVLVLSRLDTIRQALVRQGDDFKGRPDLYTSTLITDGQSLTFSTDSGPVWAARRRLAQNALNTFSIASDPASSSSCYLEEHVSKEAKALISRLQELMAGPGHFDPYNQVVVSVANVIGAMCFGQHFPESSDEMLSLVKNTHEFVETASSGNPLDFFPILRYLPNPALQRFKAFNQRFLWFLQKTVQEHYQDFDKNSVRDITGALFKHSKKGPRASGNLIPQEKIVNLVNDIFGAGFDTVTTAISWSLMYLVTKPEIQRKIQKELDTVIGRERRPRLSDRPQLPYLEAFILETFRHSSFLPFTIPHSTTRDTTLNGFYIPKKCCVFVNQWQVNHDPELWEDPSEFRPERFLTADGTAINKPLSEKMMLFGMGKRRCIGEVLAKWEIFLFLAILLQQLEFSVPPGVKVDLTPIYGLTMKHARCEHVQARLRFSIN

[3] = Solubility of the compound in pH 6.8 JP2 solution; type: physicochemical
[4] = Metabolic stability in human liver microsomes assessed as parent compound remaining after 30 mins; type: ADME, Microsome; conditions: read-out: Stability
[5] = Metabolic stability in rat liver microsomes assessed as parent compound remaining after 30 mins; type: ADME, Microsome; conditions: read-out: Stability
[6] = molecular target: CYP2C9 (Homo sapiens, UniProt P11712); test: Inhibition of CYP2C9 (unknown origin) at 10 uM relative to control; type: ADME
[7] = molecular target: CYP2C19 (Homo sapiens, UniProt P33261); test: Inhibition of CYP2C19 (unknown origin) at 10 uM relative to control; type: ADME
[8] = molecular target: CYP2D6 (Homo sapiens, UniProt P10635); test: Inhibition of CYP2D6 (unknown origin) at 10 uM relative to control; type: ADME
[9] = molecular target: T3, CYP3A4 (Homo sapiens, UniProt P08684); test: in vitro; conditions: human liver microsomes
Description: Time dependent inhibition of CYP3A4 in human liver microsomes assessed as enzyme residual activity at 100 uM relative to control

[10] = molecular target: T3, CYP3A4; test: in vitro
[11] = Cmax in F344 rat at 60 mg/kg, po; type: ADME, organism-based; set-up: dose 60 mg/kg, route oral; conditions: in vivo
[12] = AUC (0 to 8 hrs) in F344 rat at 60 mg/kg, po; type: ADME, organism-based; set-up: time < 8 hr, dose 60 mg/kg, route oral; conditions: in vivo
[13] = Cmax in F344 rat at 30 mg/kg, po; type: ADME, organism-based; set-up: dose 30 mg/kg, route oral; conditions: in vivo
[14] = AUC (0 to 8 hrs) in F344 rat at 30 mg/kg, po; type: ADME, organism-based; set-up: time < 8 hr, dose 30 mg/kg, route oral; conditions: in vivo
[15] = system: Rattus norvegicus; test: Bone anabolic activity in ovariectomized F344 rat assessed as increase in areal bone mineral density in distal femur at 30 mg/kg/day, po administered for 5 weeks measured post-last dose by dual energy X-ray absorptiometry; type: functional, organism-based
[16] = system: Rattus norvegicus; test: Bone anabolic activity in ovariectomized F344 rat assessed as increase in areal bone mineral density in proximal femur at 30 mg/kg/day, po administered for 5 weeks measured post-last dose by dual energy X-ray absorptiometry; type: functional, organism-based
[17] = system: Rattus norvegicus; test: Bone anabolic activity in ovariectomized F344 rat assessed as increase in areal bone mineral density in total femur at 30 mg/kg/day, po administered for 5 weeks measured post-last dose by dual energy X-ray absorptiometry; type: functional, organism-based

T3 sequence (P08684 whole entry): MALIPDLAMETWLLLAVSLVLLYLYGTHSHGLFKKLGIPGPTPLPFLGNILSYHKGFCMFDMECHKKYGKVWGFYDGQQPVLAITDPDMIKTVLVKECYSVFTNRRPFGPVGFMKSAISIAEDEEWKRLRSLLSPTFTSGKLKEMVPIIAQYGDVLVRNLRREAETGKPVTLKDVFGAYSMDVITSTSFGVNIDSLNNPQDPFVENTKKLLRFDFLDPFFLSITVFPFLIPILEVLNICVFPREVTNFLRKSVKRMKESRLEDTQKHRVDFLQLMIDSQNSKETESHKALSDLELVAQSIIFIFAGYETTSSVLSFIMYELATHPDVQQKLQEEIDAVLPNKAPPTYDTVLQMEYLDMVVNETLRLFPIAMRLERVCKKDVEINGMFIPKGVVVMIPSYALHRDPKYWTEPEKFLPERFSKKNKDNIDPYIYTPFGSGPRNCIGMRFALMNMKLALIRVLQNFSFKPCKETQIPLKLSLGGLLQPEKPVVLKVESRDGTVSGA
Chain of CYP2C9 (P11712 whole entry): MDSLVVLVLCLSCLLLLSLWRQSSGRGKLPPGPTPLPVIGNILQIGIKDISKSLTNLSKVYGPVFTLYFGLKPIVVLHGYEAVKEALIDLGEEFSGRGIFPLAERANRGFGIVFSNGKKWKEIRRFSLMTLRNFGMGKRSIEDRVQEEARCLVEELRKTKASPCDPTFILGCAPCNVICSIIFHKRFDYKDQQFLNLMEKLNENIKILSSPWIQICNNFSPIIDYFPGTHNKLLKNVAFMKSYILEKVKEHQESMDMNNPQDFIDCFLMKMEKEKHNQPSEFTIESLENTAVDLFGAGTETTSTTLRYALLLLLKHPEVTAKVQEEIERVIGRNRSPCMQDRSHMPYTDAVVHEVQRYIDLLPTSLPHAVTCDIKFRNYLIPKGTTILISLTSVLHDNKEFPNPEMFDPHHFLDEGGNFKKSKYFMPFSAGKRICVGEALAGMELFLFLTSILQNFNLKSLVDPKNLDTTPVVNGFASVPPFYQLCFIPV
Chain of CYP2C19 (P33261 whole entry): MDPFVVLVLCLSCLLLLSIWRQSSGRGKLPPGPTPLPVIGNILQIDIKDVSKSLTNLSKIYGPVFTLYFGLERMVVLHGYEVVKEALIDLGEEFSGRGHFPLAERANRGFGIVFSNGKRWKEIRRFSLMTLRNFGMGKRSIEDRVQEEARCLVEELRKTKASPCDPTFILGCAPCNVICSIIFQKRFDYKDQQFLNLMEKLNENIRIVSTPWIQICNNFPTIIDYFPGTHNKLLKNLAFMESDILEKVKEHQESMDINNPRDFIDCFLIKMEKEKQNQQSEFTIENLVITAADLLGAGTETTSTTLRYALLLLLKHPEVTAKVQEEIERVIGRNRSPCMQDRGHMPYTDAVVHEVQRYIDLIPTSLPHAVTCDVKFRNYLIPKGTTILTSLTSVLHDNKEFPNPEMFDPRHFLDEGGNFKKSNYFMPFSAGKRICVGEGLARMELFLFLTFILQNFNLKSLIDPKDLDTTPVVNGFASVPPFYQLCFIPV
Chain of CYP2D6 (P10635 whole entry): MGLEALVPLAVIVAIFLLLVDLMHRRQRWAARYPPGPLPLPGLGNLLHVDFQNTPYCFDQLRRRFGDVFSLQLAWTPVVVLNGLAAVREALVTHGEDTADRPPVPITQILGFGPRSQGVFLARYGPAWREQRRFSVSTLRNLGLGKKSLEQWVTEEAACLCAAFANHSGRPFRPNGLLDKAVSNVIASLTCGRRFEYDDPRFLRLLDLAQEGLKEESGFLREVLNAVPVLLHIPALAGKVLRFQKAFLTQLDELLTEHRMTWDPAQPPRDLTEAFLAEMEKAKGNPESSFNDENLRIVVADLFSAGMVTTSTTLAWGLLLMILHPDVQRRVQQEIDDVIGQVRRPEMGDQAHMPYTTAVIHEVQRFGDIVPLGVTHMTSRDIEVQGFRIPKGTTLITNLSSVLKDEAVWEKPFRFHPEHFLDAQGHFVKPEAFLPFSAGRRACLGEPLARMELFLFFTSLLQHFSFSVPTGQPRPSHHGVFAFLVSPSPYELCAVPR

EC200 [1]: 0.72 µg/mL
SMILES: CC(C)Oc1ccnc2sc(C(N)=O)c(N)c12

EC200 [1]: 0.27 µg/mL
SMILES: C[C@H]1COCC[C@@H]1Oc1ccnc2sc(C(N)=O)c(N)c12

inhibition at 10 µM [2]: 41% | EC200 [1]: 0.046 µg/mL | solubility [3]: 6.6 µg/mL (≈ 23.1 µM) | remaining at 0.5 h [4]: 11% | remaining at 0.5 h [5]: 36% | inhibition at 10 µM [6]: 13% | inhibition at 10 µM [7]: 15% | inhibition at 10 µM [8]: 5% | activity at 100 µM [9]: 93% | inhibition at 10 µM [10]: 9%
SMILES: NC(=O)c1sc2nccc(Oc3ccccc3)c2c1N

EC200 [1]: > 1 µg/mL
SMILES: COc1ccnc2sc(C(N)=O)c(N)c12

inhibition at 10 µM [2]: 61% | EC200 [1]: 0.17 µg/mL | inhibition at 10 µM [6]: 0% | inhibition at 10 µM [7]: 0% | inhibition at 10 µM [8]: 1% | inhibition at 10 µM [10]: 0%
SMILES: CN(C)c1ccnc2sc(C(N)=O)c(N)c12

EC200 [1]: > 1 µg/mL
SMILES: C[C@@H]1CCC[C@H](Oc2ccnc3sc(C(N)=O)c(N)c23)C1 (relative stereo)

EC200 [1]: > 0.3 µg/mL
SMILES: CC[C@H]1CC[C@H](Oc2ccnc3sc(C(N)=O)c(N)c23)CC1

EC200 [1]: 0.27 µg/mL
SMILES: CCOc1ccnc2sc(C(N)=O)c(N)c12

EC200 [1]: 0.02 µg/mL
SMILES: COc1ccc(Oc2ccnc3sc(C(N)=O)c(N)c23)cc1

EC200 [1]: 0.036 µg/mL
SMILES: CCc1ccc(Oc2ccnc3sc(C(N)=O)c(N)c23)cc1

EC200 [1]: > 1 µg/mL
SMILES: CN1CCC(Oc2ccnc3sc(C(N)=O)c(N)c23)CC1

EC200 [1]: 0.14 µg/mL | solubility [3]: 28 µg/mL (≈ 96.1 µM) | remaining at 0.5 h [4]: 1% | remaining at 0.5 h [5]: 2%
SMILES: NC(=O)c1sc2nccc(OC3CCCCC3)c2c1N

EC200 [1]: 0.045 µg/mL | solubility [3]: 42 µg/mL (≈ 138 µM) | remaining at 0.5 h [4]: 20% | remaining at 0.5 h [5]: 7%
SMILES: C[C@H]1CCCC[C@@H]1Oc1ccnc2sc(C(N)=O)c(N)c12 (relative stereo)

EC200 [1]: > 1 µg/mL
SMILES: NC(=O)c1sc2nccc(SC3CCCCC3)c2c1N

inhibition at 10 µM [2]: 11% | EC200 [1]: 0.25 µg/mL | solubility [3]: 180 µg/mL (≈ 614 µM) | remaining at 0.5 h [4]: 92% | remaining at 0.5 h [5]: 85% | inhibition at 10 µM [6]: 1% | inhibition at 10 µM [7]: 1% | inhibition at 10 µM [8]: 0% | Cmax [13]: 10400 ng/mL | AUC(0-t) at 8 h [14]: 29800 ng·h/mL | activity at 100 µM [9]: 89% | inhibition at 10 µM [10]: 2%
SMILES: NC(=O)c1sc2nccc(OC3CCOCC3)c2c1N
Activity [15]: Active | Activity [16]: Active | Activity [17]: Active

EC200 [1]: 0.114 µg/mL
SMILES: COc1ccccc1Oc1ccnc2sc(C(N)=O)c(N)c12

EC200 [1]: 0.037 µg/mL
SMILES: C[C@H]1CC[C@H](Oc2ccnc3sc(C(N)=O)c(N)c23)CC1

EC200 [1]: > 1 µg/mL
SMILES: C[C@H]1CC[C@@H](Oc2ccnc3sc(C(N)=O)c(N)c23)CC1

EC200 [1]: 0.201 µg/mL
SMILES: CCc1ccccc1Oc1ccnc2sc(C(N)=O)c(N)c12

EC200 [1]: 0.021 µg/mL
SMILES: NC(=O)c1sc2nccc(Oc3ccc(Cl)cc3)c2c1N

Second part, the compound before the results:

SMILES: N#Cc1ccc(Oc2ccnc3sc(C(N)=O)c(N)c23)cc1
EC200 [1]: 0.227 µg/mL

SMILES: NC(=O)c1sc2nccc(N3CCCN(c4ccccc4)CC3)c2c1N
inhibition at 10 µM [2]: 14% | inhibition at 10 µM [6]: 71% | inhibition at 10 µM [7]: 96% | inhibition at 10 µM [8]: 34% | activity at 100 µM [9]: 28% | inhibition at 10 µM [10]: 49%

SMILES: CN(C)CCc1ccc(Oc2ccnc3sc(C(N)=O)c(N)c23)cc1
EC200 [1]: 0.058 µg/mL

SMILES: CN(C)C(=O)CCCc1ccc(Oc2ccnc3sc(C(N)=O)c(N)c23)cc1
EC200 [1]: 0.004 µg/mL

SMILES: Cc1cc(Oc2ccc(CCCC(=O)N(C)C)cc2)c2c(N)c(C(N)=O)sc2n1
EC200 [1]: 0.0011 µg/mL

SMILES: COC(=O)c1ccc(Oc2ccnc3sc(C(N)=O)c(N)c23)cc1
EC200 [1]: 0.09 µg/mL

SMILES: CC(C)c1ccc(Oc2ccnc3sc(C(N)=O)c(N)c23)cc1
EC200 [1]: > 0.3 µg/mL

SMILES: CN(C)C(=O)COc1ccc(Oc2ccnc3sc(C(N)=O)c(N)c23)cc1
EC200 [1]: 0.023 µg/mL

SMILES: NC(=O)c1sc2nccc(Oc3ccc(Cl)cc3Cl)c2c1N
EC200 [1]: 0.014 µg/mL

SMILES: Cc1cc(Oc2ccc(CCCC(=O)N(C)C)cc2F)c2c(N)c(C(N)=O)sc2n1
inhibition at 10 µM [2]: 10% | EC200 [1]: 0.0005 µg/mL | solubility [3]: 0.3 µg/mL (≈ 0.697 µM) | remaining at 0.5 h [4]: 60% | remaining at 0.5 h [5]: 12% | inhibition at 10 µM [6]: 17% | inhibition at 10 µM [7]: 10% | inhibition at 10 µM [8]: 10% | Cmax [11]: 96 ng/mL | AUC(0-t) at 8 h [12]: 591 ng·h/mL | activity at 100 µM [9]: 47% | inhibition at 10 µM [10]: 20%

SMILES: NC(=O)c1sc2nccc(Oc3ccccc3Cl)c2c1N
EC200 [1]: 0.008 µg/mL

SMILES: CN(C)C(=O)c1ccc(Oc2ccnc3sc(C(N)=O)c(N)c23)cc1
EC200 [1]: > 0.3 µg/mL

SMILES: Cc1cc(Oc2ccc(CCCC(=O)N(C)C)cc2Cl)c2c(N)c(C(N)=O)sc2n1
inhibition at 10 µM [2]: 6% | EC200 [1]: 0.0004 µg/mL | solubility [3]: 0.2 µg/mL (≈ 0.447 µM) | remaining at 0.5 h [4]: 25% | remaining at 0.5 h [5]: 11% | inhibition at 10 µM [6]: 30% | inhibition at 10 µM [7]: 11% | inhibition at 10 µM [8]: 15% | activity at 100 µM [9]: 25% | inhibition at 10 µM [10]: 40%

SMILES: NC(=O)c1sc2nccc(Oc3cccc(Cl)c3)c2c1N
EC200 [1]: 0.149 µg/mL

SMILES: CN(C)C(=O)CCc1ccc(Oc2ccnc3sc(C(N)=O)c(N)c23)cc1
EC200 [1]: 0.01 µg/mL

SMILES: NC(=O)c1sc2nccc(Oc3ccccc3F)c2c1N
EC200 [1]: 0.022 µg/mL

SMILES: COc1ccc(Oc2ccnc3sc(C(N)=O)c(N)c23)c(Cl)c1
EC200 [1]: 0.008 µg/mL

SMILES: NC(=O)c1sc2nccc(Oc3ccc(CCO)cc3)c2c1N
inhibition at 10 µM [2]: 1% | EC200 [1]: 0.025 µg/mL | solubility [3]: 39 µg/mL (≈ 118 µM) | remaining at 0.5 h [4]: 93% | remaining at 0.5 h [5]: 75% | inhibition at 10 µM [6]: 7% | inhibition at 10 µM [7]: 8% | inhibition at 10 µM [8]: 3% | Cmax [11]: 1540 ng/mL | AUC(0-t) at 8 h [12]: 3580 ng·h/mL | activity at 100 µM [9]: 88% | inhibition at 10 µM [10]: 0%
